Laboratory results taken from patent US9730922B2, “Combined therapy for cystic fibrosis” (I.E.R.F.C. EUROPEAN INSTITUTE FOR CYSTIC FIBROSIS RESEARCH, priority 2012, dated 2017).

Legend:
Cftr^F508del mice = experiment: Cftr^F508del mice, CFTR localisation and lung inflammation; assay type: in vivo; details: for signs of lung inflammation: wt littermates
ΔF508-CFTR [1] = molecular target: T1, ΔF508-CFTR (Homo sapiens, UniProt P13569, DEL508-508); experiment: SPQ halide (iodide) efflux assay in freshly isolated brushed nasal epithelial cells; assay type: cell-based; parameters: Nasal epithelial cells freshly isolated by nasal brushing from 5 CF patients carrying ΔF508/ΔF508 CFTR mutations; endogenous in cells; host or cells: primary brushed nasal epithelial cells from ΔF508/ΔF508 CF patients; details: 18 h exposure, wash and reculture 24 h with medium; brushed nasal cells from ΔF508/ΔF508 patients
From the text: We examined whether cystamine or EUK-134 (Luciani A, 2010) would induce and sustain functional ΔF508-CFTR expression in freshly isolated brushed nasal epithelial cells from ΔF508/ΔF508 patients (Table 1A). We used primary nasal epithelial cells freshly obtained from ΔF508-CFTR homozygous patients, to directly test the efficacy of these autophagy-rescuing strategies on CFTR function in human airways. We used a fluorescent-based SPQ halide efflux assays (Silvis M R, 2009) to test the response to a short pulse of forskolin (FSK) added together with either of two different CFTR potentiators, genistein or VX-532, (Van Goor F, 2010) and analyzed at least 50 brushed nasal cells for group of treatment in each patient. Freshly isolated brushed nasal epithelial cells were incubated for 18 h with either cystamine or EUK-134 or with the well known CFTR correctors Corr-4a and VRT-325.
Nasal epithelial cells freshly isolated by nasal brushing from 5 CF patients carrying ΔF508/ΔF508 CFTR mutations (see Table 1A) and 5 non-CF age- and sex-matched controls (3 F, mean age 12.5 yrs) were immersed in washing solution (PBS, DTT 2 mM, EDTA 10 mM) at 37° C. for 1 h on thermal shaker, centrifuged at 2,300×g for 20 min and washed in PBS. The isolated cells were maintained in 1 ml MEM Earl's salt L-Glutamine medium supplemented with 10% FBS and the appropriate amount of penicillin/streptomycin.^31 Brushed nasal cells were cultured for 18 h with medium, Vrx-325, Corr-4a (10 μM up to 50 μM) (kindly provided by Cystic Fibrosis Foundation, USA), cystamine (250 μM, Sigma-Aldrich), EUK-134 (50 μg ml^−1, Vinci Biochem), followed by 24 h of incubation with medium alone.
Iodide efflux. […] Changes in CFTR-mediated SPQ fluorescence were monitored at the 445 nm wavelength in response to excitation at 340 nm during perfusion at 37° C. in nitrate buffer (NaI replaced with 130 mM NaNO3) for 10 min with 20 μM forskolin plus 50 μM genistein or 20 μM forskolin plus 20 μM VRX-532 (kindly provided by Cystic Fibrosis Foundation, USA). The peak iodide efflux rate (usually 12 min after forskolin plus genistein or forskolin plus Vrx-532) of treated or untreated cells was calculated in accordance with the Stern-Volmer relationship as follows: (Fo/F)−1=KCQ
where F is the observed fluorescence, Fo is the fluorescence in the absence of a quenching anion, CQ is the concentration of the quenching anion, and K is the Stern-Volmer quench constant. The rates were calculated using SigmaPlot Version 7.1 for each mean fluorescence trace generated from the 50 cells examined per population per coverslip.

[2] = system: ΔF508-CFTR homozygous airways; details: mice in vivo and human tissues in vitro; cited from earlier work
ΔF508-CFTR [3] = molecular target: T1, ΔF508-CFTR; experiment: CFTR function in airway epithelial cell lines after pre-treatment, washout and pulse with potentiators; assay type: cell-based; parameters: airway epithelial cell lines carrying ΔF508/ΔF508 CFTR mutations; endogenous in cells; details: for enabling the activity of genistein, VX-532 and VX-770 on ΔF508-CFTR: 48 h after withdrawal of the pre-treatment; for enabling the action of CFTR potentiators genistein or VX-532 in stimulating CFTR channel function: pre-treatment 18 h, washout 48 h, single pulse with potentiator, ΔF508/ΔF508 airway epithelial cell lines; for stimulating CFTR function (as potentiator): after pre-treatment with the mentioned molecules followed by 48 h of washout
Protocol: To provide the rationale for the use of either TG2 inhibitors or drugs that reduce ROS levels as pre-treatment before the administration of CFTR potentiators, another experimental setting was used, where airway epithelial cell lines carrying ΔF508/ΔF508 CFTR mutations were treated with cystamine or EUK-134 or where TG2 was depleted by a small interference RNA approach or where ROS were reduced by the overexpression of the human Manganese Superoxide-dismutase (Mn-SOD).
Another experimental approach was used to test the efficacy of other pharmacological agents able to damp down TG2 and/or reduce the levels of ROS. […] These pharmacological agents were tested following the experimental approach of pre-treatment (18 h), washout (48 h) and single pulse with potentiators, in presence or absence of PA-LPS stimulation after pulse with potentiators, following the procedure above described.
Moreover, the efficacy of other molecules endowed with either ROS inhibiting activity or potentiator activity was tested.

[4] = system: ΔF508-CFTR homozygous patients; details: cited from earlier work
[5] = system: nasal polyp biopsies from ΔF508/ΔF508 patients; experiment: ex vivo cultures of nasal polyp mucosal biopsies (confocal microscopy, in situ TG2 activity); assay type: cell-based, human
Protocol: Nasal polyp biopsies from five ΔF508/ΔF508 patients (Table 1B) were treated with cystamine for 18 h, washed and then cultured for further 36 h in the absence of cystamine.
Next, ΔF508/ΔF508 nasal polyp biopsies were pulsed for 30 min with genistein followed by 4 h incubation with PA-LPS. […] To examine whether pre-treatment with cystamine was effective in enabling the action of genistein in human airways, nasal polyp biopsies were incubated with cystamine or medium for 18 h, then washed and kept in medium alone for 24 h and finally pulsed for 30 min with genistein followed by 4 h PA-LPS.
Human samples: ex vivo cultures of nasal polyp mucosal biopsies. Nasal polyp biopsies from 5 ΔF508 homozygous patients undergoing surgical treatment for non-allergic nasal polyposis (see Table 1B) were cultured as previously described,^7,19,32 for 18 h with medium, cystamine or EUK-134, followed by 36 h of incubation with medium alone, and then pulsed for 30 min with medium or genistein followed by 4 h of PA-LPS challenge.
Human tissue sections: five-micrometer frozen human lung tissue sections were fixed in acetone for 10 min. The sections were incubated for 2 h at room temperature with the indicated antibodies (Abs). […] The primary Abs were: CFTR 1:100 (CF3, Abcam), CFTR 1:100 (H-182, Santa Cruz Biotecnology) (used on mouse tissue), phospho-Tyr 1:200 (Santa Cruz Biotecnology), p62 1:300 (Sigma). These were followed by incubation with Alexa 488 or 546 secondary antibodies (Molecular Probe, Invitrogen). Data were analyzed under fluorescence examination by a LSM510 Zeiss confocal laser-scanning unit (Carl Zeiss, Germany).
In situ detection of TG2 exzyme activity. TG2 activity in tissue samples was detected by incubating unfixed sections with biotinylated monodansylcadaverine for 1 h at 37° C. The incorporation of labeled substrate was visualized by incubation with Alexa 546-conjugated streptavidin (1:100; Molecular Probes, Invitrogen) for 30 min.

[6] = i.p. 7 days followed by 10 days of vehicle only

T1 sequence (P13569 with tags, fused parts or gaps DEL508-508): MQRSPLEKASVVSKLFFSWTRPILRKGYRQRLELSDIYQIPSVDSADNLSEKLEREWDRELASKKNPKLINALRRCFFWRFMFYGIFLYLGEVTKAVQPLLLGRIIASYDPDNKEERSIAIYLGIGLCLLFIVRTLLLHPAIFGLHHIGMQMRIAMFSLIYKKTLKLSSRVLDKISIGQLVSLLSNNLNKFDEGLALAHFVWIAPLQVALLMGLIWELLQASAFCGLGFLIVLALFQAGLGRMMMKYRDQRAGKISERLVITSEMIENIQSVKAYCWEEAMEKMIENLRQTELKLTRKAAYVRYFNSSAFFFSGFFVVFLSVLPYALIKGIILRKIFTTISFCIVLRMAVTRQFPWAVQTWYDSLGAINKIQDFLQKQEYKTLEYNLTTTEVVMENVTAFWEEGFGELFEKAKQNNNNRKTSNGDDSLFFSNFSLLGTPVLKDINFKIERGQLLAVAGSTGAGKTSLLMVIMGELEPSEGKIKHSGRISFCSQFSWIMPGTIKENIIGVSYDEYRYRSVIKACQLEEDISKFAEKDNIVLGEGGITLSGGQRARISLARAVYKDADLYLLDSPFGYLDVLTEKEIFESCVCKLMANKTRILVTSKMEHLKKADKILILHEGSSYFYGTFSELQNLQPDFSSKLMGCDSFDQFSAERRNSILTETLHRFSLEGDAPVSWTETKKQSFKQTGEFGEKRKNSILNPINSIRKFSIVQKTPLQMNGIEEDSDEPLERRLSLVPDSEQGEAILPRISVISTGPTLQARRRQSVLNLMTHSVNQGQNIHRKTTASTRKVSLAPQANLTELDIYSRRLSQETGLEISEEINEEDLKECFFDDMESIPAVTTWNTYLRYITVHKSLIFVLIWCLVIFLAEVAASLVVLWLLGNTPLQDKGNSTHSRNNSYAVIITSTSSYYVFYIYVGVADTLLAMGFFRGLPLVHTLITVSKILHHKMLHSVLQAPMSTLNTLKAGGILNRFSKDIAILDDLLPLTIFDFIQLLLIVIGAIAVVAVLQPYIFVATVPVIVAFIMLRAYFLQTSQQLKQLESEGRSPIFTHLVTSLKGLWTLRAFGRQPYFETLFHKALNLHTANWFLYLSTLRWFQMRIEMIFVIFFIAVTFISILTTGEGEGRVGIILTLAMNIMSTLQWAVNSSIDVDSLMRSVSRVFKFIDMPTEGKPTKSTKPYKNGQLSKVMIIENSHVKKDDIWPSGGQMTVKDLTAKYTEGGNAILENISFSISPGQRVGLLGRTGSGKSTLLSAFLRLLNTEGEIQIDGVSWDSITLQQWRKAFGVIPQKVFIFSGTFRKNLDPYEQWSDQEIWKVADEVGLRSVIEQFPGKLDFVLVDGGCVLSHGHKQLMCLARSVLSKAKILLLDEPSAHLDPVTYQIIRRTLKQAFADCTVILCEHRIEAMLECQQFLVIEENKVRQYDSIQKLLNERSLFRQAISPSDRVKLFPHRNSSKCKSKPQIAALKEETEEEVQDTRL

With `Cn1cnc(N)c2ncnc1-2` [3-MA] the “effects of cystamine (ΔF508 re-location, reduced lung inflammation) with co-treatment during the phase of withdrawal” value (Cftr^F508del mice; intraperitoneal treatment during the withdrawal phase) was “abrogated”.
For `COc1ccc(Cl)cc1Nc1nc(-c2sc(NC(=O)c3ccccc3)nc2C)cs1` [Corr-4a], the “ΔF508-CFTR response to a short pulse of forskolin plus genistein or VX-532 (SPQ halide efflux)” value (shortened to “ΔF508-CFTR response to a short pulse”) (ΔF508-CFTR [1]) was “only had scarce effects”.
For `COc1cccc(C=NCCN=Cc2cccc(OC)c2[O-])c1[O-].[Cl-].[Mn+3]` [EUK-134], the “inflammation in ΔF508-CFTR homozygous airways” value [2] is listed as “blunts inflammation”, the “enabling the activity of genistein, VX-532 and VX-770 on ΔF508-CFTR” value (ΔF508-CFTR [3]) is listed as “enables the activity of the CFTR potentiators genistein and VX-532 as well as of the well known CFTR potentiator VX-770” and the “enabling the action of CFTR potentiators genistein or VX-532 in stimulating CFTR channel function” value (ΔF508-CFTR [3]) is listed as “similarly effective in enabling the action of CFTR potentiators”. The “ΔF508-CFTR response to a short pulse” value (ΔF508-CFTR [1]) was “rendered the cells capable of conserving ΔF508-CFTR response”.
With `COc1ccc(S(=O)(=O)N2CCN(C(C)c3nc(OC4CCCCC4)c4ccccc4n3)CC2)cc1` (centres unmarked) [VRT-325] the “ΔF508-CFTR response to a short pulse” value (ΔF508-CFTR [1]) was “only had scarce effects”.
In the case of `Cc1ccc(NC(=O)C2(c3ccc4c(c3)OC(F)(F)O4)CC2)nc1-c1cccc(C(=O)O)c1` [VX-809], the “lung function or CF complications” value [4] is listed as “no improvement” and the sweat chloride [4] is listed as “modest dose-dependent reductions”.
In the case of `CC(=O)N[C@@H](CS)C(=O)O` [acetylcysteine], the “inflammation in ΔF508-CFTR homozygous airways” value [2] is given as “blunts inflammation”.
For `O=c1cc(-c2ccc(O)cc2)oc2cc(O)cc(O)c12` [apigenin], the “stimulating CFTR function (as potentiator)” value (shortened to “stimulating CFTR function”) (ΔF508-CFTR [3]) was “as effective as genistein in stimulating CFTR function”.
For `NCCSSCCN` [cystamine], the “reduction of signs of mucosal inflammation (TG2 activation and protein tyrosine phosphorylation)” value ([5]; cystamine 18 h, washed, 36 h washout) was “persisted after 36 h of washout”, the “rescue of CFTR at the epithelial surface (confocal microscopy)” value ([5]; cystamine 18 h, washed, 36 h without cystamine) was “persisted for 36 h after cystamine withdrawal” and the lung inflammation (Cftr^F508del mice; daily inhalations of aerosolized 0.2 mg/mouse/day for one week) was “reduced lung inflammation”. For the same molecule, the “re-location of ΔF508 protein at the respiratory epithelial surface” value (Cftr^F508del mice; [6]) was “persisted for 10 days after cystamine withdrawal”, the reducing lung inflammation (Cftr^F508del mice; [6]) was “persisted for 10 days after cystamine withdrawal” and the “signs of lung inflammation” value (Cftr^F508del mice) was “not effective”. The “inflammation in ΔF508-CFTR homozygous airways” value [2] was “blunts inflammation”, the “enabling the activity of genistein, VX-532 and VX-770 on ΔF508-CFTR” value (ΔF508-CFTR [3]) was “enables the activity of the CFTR potentiators genistein and VX-532 as well as of the well known CFTR potentiator VX-770” and the “enabling the action of CFTR potentiators genistein or VX-532 in stimulating CFTR channel function” value (ΔF508-CFTR [3]) was “similarly effective in enabling the action of CFTR potentiators”. For the same molecule, the “ΔF508-CFTR response to a short pulse” value (ΔF508-CFTR [1]) was “rendered the cells capable of conserving ΔF508-CFTR response”.
For `Oc1cc(O)c2c(c1)O[C@H](c1cc(O)c(O)c(O)c1)[C@H](O)C2` [epigallocatechin], the “stimulating CFTR function” value (ΔF508-CFTR [3]) was “as effective as genistein in stimulating CFTR function”.
For `O=c1c(-c2ccc(O)cc2)coc2cc(O)cc(O)c12` [genistein], the epithelial protein phosphorylation ([5]; 30 min pulse followed by 4 h PA-LPS, no pre-treatment) was “not effective in reducing epithelial protein phosphorylation”, the “signs of lung inflammation after genistein pulse and aerosolized PA-LPS” value (Cftr^F508del mice; mice not pretreated with cystamine) was “had no effect on its own” and the “signs of lung inflammation after genistein pulse and aerosolized PA-LPS” value (Cftr^F508del mice; mice pre-treated with aerosolized cystamine one week, one week without treatment) was “significantly reduced the signs of lung inflammation”. The “signs of lung inflammation” value (Cftr^F508del mice) was “not effective”.
For `O=c1c(O)c(-c2ccc(O)c(O)c2)oc2cc(O)cc(O)c12` [quercetin], the “stimulating CFTR function” value (ΔF508-CFTR [3]) was “as effective as genistein in stimulating CFTR function”.
In the case of `COc1cc(C2Oc3cc([C@H]4Oc5cc(O)cc(O)c5C(=O)[C@@H]4O)ccc3OC2CO)ccc1O` (some centres unmarked) [silybin], the “stimulating CFTR function” value (ΔF508-CFTR [3]) is reported as “as effective as genistein in stimulating CFTR function”.
With catechin the “stimulating CFTR function” value (ΔF508-CFTR [3]) was “as effective as genistein in stimulating CFTR function”.
